Calls of active or inactive are those of the source. The rule behind the calls is not given here.
What was measured:
[1] = Antioxidant activity assessed as ABTS radical scavenging activity after 12 hrs; format: functional
[2] = Antioxidant activity assessed as superoxide radical anion scavenging activity after 8 mins; format: functional
[3] = tested on: Radical scavenging activity; assay: Antioxidant activity assessed as DPPH radical scavenging activity after 10 mins; format: functional
[4] = Protective effect against Fe2+/H2O2 radical-induced supercoiled DNA breakage at 1 mM

Compound | EC50 [1] [µM] | Activity [2] | EC50 [3] [µM] | Activity [4] [%] | EC50 [2] [µM]
C/C=C/c1cc(O)cc(=O)o1 | > 50 | inactive | > 100 | – | –
C/C=C/c1cc2c(c(=O)o1)-c1c(O)c(O)c(OC)c(C(=O)O)c1CO2 [CYATHUSCAVIN A] | 14.8 | – | 19.3 | 70 | 21.9
C/C=C/c1cc2c(c(=O)o1)-c1c(O)c(O)c(OC)c(C(=O)O)c1C(OC)O2 (stereo not drawn) [CYATHUSCAVIN B] | 9.84 | – | 13.9 | 90 | 25.1
C/C=C/c1cc2c(c(=O)o1)-c1c(O)c(O)c(OC)c(C(=O)O)c1C(O)O2 (stereo not drawn) [CYATHUSCAVIN C] | 7.08 | inactive | 19.6 | 70 | –
Cc1c(C)c2c(c(C)c1O)CCC(C)(C(=O)O)O2 (stereo not drawn) [TROLOX] | 11.8 | inactive | 22.1 | – | –

Reference: ChEMBL document CHEMBL1155035, “Cyathuscavins A, B, and C, new free radical scavengers with DNA protection activity from the Basidiomycete Cyathus stercoreus” (Bioorg Med Chem Lett, 2008)
